Ends that are not written are not given here.
Legend:
[1] = Electronic tongue analysis (Taste-Sensing System SA 402B); set-up: unit not given here; details: reference solution 30 mM KCl + 0.3 mM tartaric acid as baseline, first measurement excluded; for Umami: sensor AAE; for Umami / Bitter / Sweet: detection threshold 0, room temperature; for Umami / Bitter / Sour / Salty: four replicates; for Sour: detection threshold -13, room temperature; for Salty: detection threshold -6, room temperature; for Sweet: measured five times
How it was run: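 Samples were tested at 0.1 and 1.0 mg/mL on an SA 402B e-tongue fitted with sourness, saltiness, bitterness, sweetness and umami sensors, with 30 mM KCl/0.3 mM tartaric acid as reference and baseline. Thresholds were −13 for sour, −6 for salty and 0 for the rest. Runs at room temperature: four replicates, five for sweetness, first reading discarded.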

[2] = test system: human bronchial epithelial cells (BEAS-2B)
Method: The cytotoxicity of 73 synthetic peptides was evaluated using four human cell lines: human pancreatic ductal epithelial cells (HPNE), human embryonic kidney cells (HEK293T), human umbilical vein endothelial cells (HUVEC), and human bronchial epithelial cells (BEAS-2B). When cell density reached 70% confluence, the complete culture medium was replaced with serum-free maintenance medium, and peptides were added at a final concentration of 100 μM for 36 h. Control groups received only serum-free maintenance medium without peptides. Cell proliferation was assessed using the CCK-8 assay kit (Solarbio, CA1210) according to the manufacturer’s instructions.

[3] = test system: human embryonic kidney cells (HEK293T)
[4] = test system: human pancreatic ductal epithelial cells (HPNE)
[5] = test system: human umbilical vein endothelial cells (HUVEC)

Substance	Umami ([1]; peptide 0.1 mg/mL)	Umami ([1]; peptide 1 mg/mL)	Bitter ([1]; sensor C00, peptide 0.1 mg/mL)	Bitter ([1]; sensor C00, peptide 1 mg/mL)	Sour ([1]; sensor CA0, peptide 0.1 mg/mL)	Sour ([1]; sensor CA0, peptide 1 mg/mL)	Salty ([1]; sensor CT0, peptide 0.1 mg/mL)	Salty ([1]; sensor CT0, peptide 1 mg/mL)	Sweet ([1]; sensor GL1, peptide 0.1 mg/mL)	Sweet ([1]; sensor GL1, peptide 1 mg/mL)	Average cell viability, BEAS-2B [2]	Cell viability, BEAS-2B, Data1 [2]	Cell viability, BEAS-2B, Data2 [2]	Cell viability, BEAS-2B, Data3 [2]	Average cell viability, HEK293T [3]	Cell viability, HEK293T, Data1 [3]	Cell viability, HEK293T, Data2 [3]	Cell viability, HEK293T, Data3 [3]	Average cell viability, HPNE [4]	Cell viability, HPNE, Data1 [4]	also measured
FEGPE [TaPep62]	1.43	-4.77	7.43	3.70	-2.87	11.86	-20.91	8.50	6.38	-4.13	106.55	112.26	103.59	103.79	100.16	97.95	102.21	100.32	104.06	108.32	Cell viability, HPNE, Data2 [4]: 92.35; Cell viability, HPNE, Data3 [4]: 111.51; Average cell viability, HUVEC [5]: 108.97; Cell viability, HUVEC, Data1 [5]: 109.69; Cell viability, HUVEC, Data2 [5]: 105.38; Cell viability, HUVEC, Data3 [5]: 111.84
FNGVE [TaPep61]	3.14	-2.71	6.59	3.33	-7.21	6.60	-23.88	3.55	8.89	-2.71	99.57	95.41	109.57	93.72	98.80	99.65	96.91	99.84	94.34	84.66	Cell viability, HPNE, Data2 [4]: 82.36; Cell viability, HPNE, Data3 [4]: 116.01; Average cell viability, HUVEC [5]: 99.47; Cell viability, HUVEC, Data1 [5]: 89.49; Cell viability, HUVEC, Data2 [5]: 104.82; Cell viability, HUVEC, Data3 [5]: 104.10
FPEQQD [TaPep16]	1.15	-5.22	7.29	3.65	-2.22	12.97	-21.97	7.92	4.77	-5.75	95.65	98.50	96.11	92.32	100.13	105.99	97.00	97.38	104.83	100.13	Cell viability, HPNE, Data2 [4]: 113.61; Cell viability, HPNE, Data3 [4]: 100.73; Average cell viability, HUVEC [5]: 101.44; Cell viability, HUVEC, Data1 [5]: 102.74; Cell viability, HUVEC, Data2 [5]: 107.69; Cell viability, HUVEC, Data3 [5]: 93.88
FTEELE [TaPep32]	1.89	-4.56	7.51	2.80	-3.82	11.60	-20.95	9.59	8.60	-6.23	106.88	104.99	104.59	111.07	100.73	105.14	99.56	97.48	103.23	117.80	Cell viability, HPNE, Data2 [4]: 110.72; Cell viability, HPNE, Data3 [4]: 81.16; Average cell viability, HUVEC [5]: 98.11; Cell viability, HUVEC, Data1 [5]: 111.20; Cell viability, HUVEC, Data2 [5]: 89.81; Cell viability, HUVEC, Data3 [5]: 93.32
HGGDDLG [TaPep28]	1.08	-5.39	7.58	4.00	-2.05	13.70	-21.08	11.23	3.25	-6.08	108.84	111.86	106.08	108.57	97.67	96.62	99.75	96.62	100.10	100.63	Cell viability, HPNE, Data2 [4]: 102.04; Cell viability, HPNE, Data3 [4]: 97.63; Average cell viability, HUVEC [5]: 104.66; Cell viability, HUVEC, Data1 [5]: 105.77; Cell viability, HUVEC, Data2 [5]: 106.73; Cell viability, HUVEC, Data3 [5]: 101.46
HIDELDE [TaPep22]	2.56	-3.68	6.91	3.37	-5.65	9.43	-22.87	7.21	7.18	-4.86	111.67	106.78	113.26	114.96	98.23	106.09	94.35	94.26	95.67	103.83	Cell viability, HPNE, Data2 [4]: 84.66; Cell viability, HPNE, Data3 [4]: 98.54; Average cell viability, HUVEC [5]: 101.94; Cell viability, HUVEC, Data1 [5]: 90.69; Cell viability, HUVEC, Data2 [5]: 106.97; Cell viability, HUVEC, Data3 [5]: 108.17
IAVPHEP [TaPep47]	2.32	-4.54	8.00	3.37	-4.89	10.97	-19.15	9.73	6.95	-5.60	106.38	109.97	99.00	110.17	100.09	104.67	100.41	95.21	99.80	107.02	Cell viability, HPNE, Data2 [4]: 87.25; Cell viability, HPNE, Data3 [4]: 105.12; Average cell viability, HUVEC [5]: 101.12; Cell viability, HUVEC, Data1 [5]: 101.62; Cell viability, HUVEC, Data2 [5]: 112.48; Cell viability, HUVEC, Data3 [5]: 89.25
IFGDD [TaPep57]	1.71	-5.02	7.29	3.08	-3.54	12.57	-21.64	9.94	6.75	-7.93	100.86	99.70	103.89	99.00	99.72	100.22	96.06	102.87	103.13	83.76	Cell viability, HPNE, Data2 [4]: 112.81; Cell viability, HPNE, Data3 [4]: 112.81; Average cell viability, HUVEC [5]: 100.24; Cell viability, HUVEC, Data1 [5]: 106.57; Cell viability, HUVEC, Data2 [5]: 103.38; Cell viability, HUVEC, Data3 [5]: 90.77
ILEEQ [TaPep29]	1.81	-4.08	7.69	3.20	-3.61	10.60	-20.79	9.53	7.74	-5.49	114.56	114.56	111.96	117.15	100.41	100.88	96.44	103.91	96.81	101.03	Cell viability, HPNE, Data2 [4]: 96.44; Cell viability, HPNE, Data3 [4]: 92.95; Average cell viability, HUVEC [5]: 98.96; Cell viability, HUVEC, Data1 [5]: 93.24; Cell viability, HUVEC, Data2 [5]: 109.93; Cell viability, HUVEC, Data3 [5]: 93.72

Reference: paper PMC12543283, “TastepepAI: An artificial intelligence platform for taste peptide de novo design” (PLOS Computational Biology, 2025)
